The supplement of paper PMC11061612

Experiments:
[1] = tested on: HSC-4 (Oral Cavity Carcinoma); assay: Bliss excess, mean over the matrix (fraction); higher = more synergy
Outline: (§1)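 After 24 hours at 37°C and 5% CO2 in 1536-well plates, cells in DMEM/F12 or RPMI plus 10% FBS received two-drug dose matrices for 72 hours. Viability came from CellTiter-Glo 2.0 luminescence and was scaled as inhibition, anchored at 0 by vehicle wells and at 1 by blank wells. Combination Emax is taken as the second-highest inhibition in the matrix, and Bliss excess as the observed combination effect less EA + EB − EA·EB, with EA and EB the single-agent effects.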

[2] = tested on: VA-ES-BJ (Other Solid Carcinomas); assay: as above
Outline: as §1

PWR-1E (Non-Cancerous) = assay: as above
Outline: as §1

[3] = tested on: C-4-I (Cervical Carcinoma); assay: as above
Outline: as §1

[4] = tested on: SCC-15 (Oral Cavity Carcinoma); assay: as above
Outline: as §1

[5] = tested on: OSC-20 (Oral Cavity Carcinoma); assay: as above
Outline: as §1

[6] = tested on: NEC8 (Other Solid Carcinomas); assay: as above
Outline: as §1

[7] = tested on: HOP-62 (Lung Adenocarcinoma); assay: as above
Outline: as §1

[8] = tested on: OE19 (Esophageal Adenocarcinoma); assay: as above
Outline: as §1

[9] = tested on: NCI-H1915 (Non-Small Cell Lung Carcinoma); assay: as above
Outline: as §1

[10] = tested on: Caov-4 (Ovarian Carcinoma); assay: combination Emax (second highest fraction inhibited in the dose matrix, 72 h); higher = more inhibition; extreme values may be limits of the assay
Outline: as §1

[11] = tested on: EFM-19 (Breast Carcinoma); assay: as above
Outline: as §1

TGW (Neuroblastoma) = assay: as above
Outline: as §1

[12] = tested on: Ca9-22 (Head and Neck Carcinoma); assay: as above
Outline: as §1

[13] = tested on: PANC-04-03 (Pancreatic Carcinoma); assay: as above
Outline: as §1

[14] = tested on: KARPAS-299 (T-Cell Non-Hodgkin's Lymphoma); assay: as above
Outline: as §1

[15] = tested on: Hs-766T (Pancreatic Carcinoma); assay: as above
Outline: as §1

[16] = tested on: NCI-H727 (Other Solid Carcinomas); assay: as above
Outline: as §1

[17] = tested on: KYSE-450 (Esophageal Squamous Cell Carcinoma); assay: as above
Outline: as §1

[18] = tested on: SW13 (Other Solid Carcinomas); assay: as above
Outline: as §1
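Wherever Bliss excess, mean over the matrix is given: after 72 h of two-drug dosing.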

| SMILES | Bliss excess [1] | Bliss excess [2] | Bliss excess (PWR-1E (Non-Cancerous)) | Bliss excess [3] | Bliss excess [4] | Bliss excess [5] | Bliss excess [6] | Bliss excess [7] | Bliss excess [8] | Bliss excess [9] | combination Emax [10] | combination Emax [11] | combination Emax (TGW (Neuroblastoma)) | combination Emax [12] | combination Emax [13] | combination Emax [14] | combination Emax [15] | combination Emax [16] | combination Emax [17] | combination Emax [18] |
| --- | --- | --- | --- | --- | --- | --- | --- | --- | --- | --- | --- | --- | --- | --- | --- | --- | --- | --- | --- | --- |
| CN(CCO)CC[C@H](CSc1ccccc1)Nc1ccc(S(=O)(=O)NC(=O)c2ccc(N3CCC([C@@H](O)c4ccccc4-c4ccc(Cl)cc4)CC3)cc2)cc1S(=O)(=O)C(F)(F)F [AZD4320] + C[C@@H](Nc1cc(F)cc(F)c1)c1cc(C(=O)N(C)C)cc2c(=O)cc(N3CCOCC3)oc12 [AZD8186] (first compound max 1 µM, 7x7, partner max 3 µM) | -0.12 | 0.0393 | -0.0097 | 0.0681 | -0.0179 | 0.0146 | 0.0171 | -0.0226 | 0.0201 | 0.0202 | 0.461 | 0.82 | 0.968 | 0.648 | 0.257 | 0.247 | 0.469 | 0.378 | 0.33 | 0.592 |
| Cc1cc2ncnn2cc1Nc1ncc2c(n1)n(C1CCOCC1)c(=O)n2C [AZD7648] + C=CCn1c(=O)c2cnc(Nc3ccc(N4CCN(C)CC4)cc3)nc2n1-c1cccc(C(C)(C)O)n1 [AZD1775] (first compound max 10 µM, partner max 1 µM) | -0.0082 | -0.008 | 0.0256 | -0.015 | 0.0938 | -0.0252 | 0.0004 | -0.0093 | -0.0099 | -0.0738 | 0.922 | 0.615 | 0.732 | 0.734 | 0.555 | 0.927 | 0.555 | 0.351 | 0.638 | 0.329 |
| Cc1cc2ncnn2cc1Nc1ncc2c(n1)n(C1CCOCC1)c(=O)n2C [AZD7648] + CCN(CCO)CCCOc1ccc2c(Nc3cc(CC(=O)Nc4cccc(F)c4)[nH]n3)ncnc2c1 [AZD2811] (first compound max 10 µM, 7x7, partner max 1 µM) | 0.0036 | -0.0034 | 0.0299 | 0.048 | 0.071 | -0.0209 | -0.0082 | 0.0126 | 0.0151 | -0.0444 | 0.445 | 0.536 | 0.351 | 0.3 | 0.284 | 0.326 | 0.422 | 0.287 | 0.343 | 0.506 |
| Cc1cc2ncnn2cc1Nc1ncc2c(n1)n(C1CCOCC1)c(=O)n2C [AZD7648] + CN(C)CCCOc1ccc(-c2ccc3ncc4c(c3c2)n(C2CCOCC2)c(=O)n4C)cn1 [AZD0156] (first compound max 10 µM, 7x7, partner max 1 µM) | -0.0154 | 0.0248 | 0.0532 | 0.0099 | 0.0215 | -0.0082 | -0.0007 | -0.0173 | 0.0583 | -0.0208 | 0.344 | 0.403 | 0.351 | 0.226 | 0.347 | 0.237 | 0.525 | 0.294 | 0.252 | 0.39 |
| Cc1cc2ncnn2cc1Nc1ncc2c(n1)n(C1CCOCC1)c(=O)n2C [AZD7648] + C[C@@H]1COCCN1C2=NC(=NC(=C2)C3(CC3)[S@](=N)(=O)C)C4=C5C=CNC5=NC=C4 [AZD6738] (first compound max 10 µM, 7x7, partner max 10 µM) | -0.0165 | -0.0099 | -0.109 | 0.0255 | 0.0975 | 0.0065 | 0.0119 | -0.0009 | -0.0607 | -0.0216 | 0.916 | 0.541 | 0.739 | 0.919 | 0.522 | 0.927 | 0.636 | 0.545 | 0.593 | 0.499 |
| Cc1cc2ncnn2cc1Nc1ncc2c(n1)n(C1CCOCC1)c(=O)n2C [AZD7648] + O=C(c1cc(Cc2n[nH]c(=O)c3ccccc23)ccc1F)N1CCN(C(=O)C2CC2)CC1 [Olaparib] (first compound max 10 µM, 7x7, partner max 10 µM) | -0.0448 | -0.0416 | -0.0005 | 0.005 | -0.0408 | 0.0194 | 0.0327 | -0.0528 | -0.0097 | -0.0215 | 0.199 | 0.401 | 0.344 | 0.113 | 0.183 | 0.151 | 0.353 | 0.218 | 0.0972 | 0.203 |
| Cc1nc(Nc2ncc(C(=O)Nc3c(C)cccc3Cl)s2)cc(N2CCN(CCO)CC2)n1 [Dasatinib] + CC(=O)Nc1cccc(-n2c(=O)n(C3CC3)c(=O)c3c(Nc4ccc(I)cc4F)n(C)c(=O)c(C)c32)c1 [Trametinib] (first compound max 2 µM, 7x7, partner max 1 µM) | -0.0681 | -0.033 | 0.0481 | 0.0328 | -0.0213 | -0.0148 | -0.0277 | -0.0824 | -0.063 | 0.0564 | 0.743 | 0.199 | 0.273 | 0.878 | 0.781 | 0.427 | 0.777 | 0.701 | 0.382 | 0.716 |
| COc1cc2ncnc(Nc3ccc(F)c(Cl)c3)c2cc1OCCCN1CCOCC1 [Gefitinib] + CC(C)n1c(=O)n(C)c2cnc3cc(F)c(-c4ccc(OCCCN5CCCCC5)nc4)cc3c21 [AZD1390] (first compound max 10 µM, 7x7, partner max 0.3 µM) | -0.0847 | -0.0513 | -0.0234 | -0.042 | -0.0571 | -0.0691 | -0.0278 | -0.0751 | -0.0181 | -0.0433 | 0.171 | 0.158 | 0.0238 | 0.625 | 0.347 | 0.14 | 0.181 | 0.157 | 0.338 | 0.724 |
| COc1cc2c(cc1OCCCCCOc1cc3c(cc1OC)C(=O)N1C=C(C)C[C@H]1C=N3)N=C[C@@H]1CC(C)=CN1C2=O [SG3199] + O=C(c1cc(Cc2n[nH]c(=O)c3ccccc23)ccc1F)N1CCN(C(=O)C2CC2)CC1 [Olaparib] (first compound max 0.001 µM, 7x7, partner max 10 µM) | -0.046 | 0.0099 | -0.0258 | -0.012 | -0.03 | -0.0319 | 0.0376 | -0.0276 | 0.0098 | -0.0248 | 0.165 | 0.171 | 0.166 | 0.0924 | 0.114 | 0.0832 | 0.0914 | 0.24 | 0.0761 | 0.0899 |
| C[C@@H](c1ccc2nccn2c1)n1nnc2ncc(-c3cnn(C)c3)nc21 [Savolitinib] + CC1(C)CCC(CN2CCN(c3ccc(C(=O)NS(=O)(=O)c4ccc(NCC5CCOCC5)c([N+](=O)[O-])c4)c(Oc4cnc5[nH]ccc5c4)c3)CC2)=C(c2ccc(Cl)cc2)C1 [Venetoclax] (first compound max 1 µM, 7x7, partner max 1 µM) | -0.0776 | -0.0433 | -0.034 | -0.0585 | -0.0613 | -0.0521 | -0.0236 | -0.0939 | -0.0377 | -0.0456 | 0.12 | 0.182 | 0.313 | 0.193 | 0.202 | 0.169 | 0.252 | 0.157 | 0.0763 | 0.139 |
| C[C@@H](c1ccc2nccn2c1)n1nnc2ncc(-c3cnn(C)c3)nc21 [Savolitinib] + Cc1c2c(nn1C)CSCc1cc(n(C)n1)CSc1cc(c3ccccc3c1)OCCCc1c(C(=O)O)n(C)c3c-2c(Cl)ccc13 [AZD5991] (first compound max 1 µM, 7x7, partner max 1 µM) | -0.0864 | -0.0299 | -0.0664 | -0.111 | -0.0222 | -0.0239 | -0.0093 | -0.0754 | -0.093 | -0.0587 | 0.421 | 0.223 | 0.214 | 0.143 | 0.165 | 0.936 | 0.233 | 0.203 | 0.115 | 0.735 |
